Reference: ChEMBL document CHEMBL1144349, “A shape-based 3-D scaffold hopping method and its application to a bacterial protein-protein interaction” (J Med Chem, 2005)

Assay: Affinity for bacterial ZipA-FtsZ protein-protein interaction
Design: species or system Escherichia coli

Compound | Kd [µM]
CC(=O)Nc1cccc(-c2ccc3nnc(-c4ccccc4)n3n2)c1 | 73.9
CC(=O)N(C)c1cccc(-c2ccc3nnc(-c4cccnc4)n3n2)c1 | 85.1
